# Experimental data: patent US20030022812A1, “Treating pain by targeting hyperpolarization-activated, cyclic nucleotide-gated channels” (priority 2001, published 2003)
# Entries after “also recorded” stand apart in the source; their conditions may differ.
# Tests used:
# [1] = biological target: T1, human HCN1 (Homo sapiens, UniProt O60741); assay: Two-electrode voltage clamp of Xenopus oocytes injected with human HCN1 cRNA; type: cell-based; conditions: Cs+ 3 mM; for block of HCN1 currents: n=3
# T1 construct: expressed in transfected cells; host or cells: Xenopus laevis oocytes injected with cRNA transcribed from pGEMHE-human HCN1
# T1 sequence (O60741 1-890): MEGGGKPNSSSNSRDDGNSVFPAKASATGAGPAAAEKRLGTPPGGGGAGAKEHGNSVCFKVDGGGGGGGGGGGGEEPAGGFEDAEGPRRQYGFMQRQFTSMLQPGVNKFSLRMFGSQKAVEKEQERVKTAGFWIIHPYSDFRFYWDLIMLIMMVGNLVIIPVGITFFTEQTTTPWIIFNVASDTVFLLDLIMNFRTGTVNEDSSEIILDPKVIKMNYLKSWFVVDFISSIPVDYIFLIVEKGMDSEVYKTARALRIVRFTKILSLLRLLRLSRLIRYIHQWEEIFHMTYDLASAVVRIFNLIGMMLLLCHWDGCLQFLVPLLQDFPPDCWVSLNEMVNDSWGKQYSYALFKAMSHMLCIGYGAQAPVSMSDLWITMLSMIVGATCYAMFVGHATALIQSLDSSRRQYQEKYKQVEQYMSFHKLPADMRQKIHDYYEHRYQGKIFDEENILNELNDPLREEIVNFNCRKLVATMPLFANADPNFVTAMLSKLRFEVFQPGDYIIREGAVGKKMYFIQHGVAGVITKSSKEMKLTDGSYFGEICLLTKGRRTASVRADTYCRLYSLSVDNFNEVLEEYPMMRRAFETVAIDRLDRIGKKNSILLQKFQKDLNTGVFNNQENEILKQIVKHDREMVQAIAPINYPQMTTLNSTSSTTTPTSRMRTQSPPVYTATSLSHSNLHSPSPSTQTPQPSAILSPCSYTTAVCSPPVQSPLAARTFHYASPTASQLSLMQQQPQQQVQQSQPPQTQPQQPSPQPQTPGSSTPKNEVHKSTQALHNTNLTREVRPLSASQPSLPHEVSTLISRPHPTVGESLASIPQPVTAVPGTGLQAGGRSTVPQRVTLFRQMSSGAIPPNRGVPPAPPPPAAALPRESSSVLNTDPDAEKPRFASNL
# Protocol: Xenopus laevis oocytes were prepared and injected using standard methods previously described and known in the art [Fraser et al. (1993). Electrophysiology: a practical approach. D. I. Wallis, IRL Press at Oxford University Press, Oxford: 65-86]. Ovarian lobes from adult female Xenopus laevis (Nasco, Fort Atkinson, Wis.) were teased apart, rinsed several times in nominally Ca-free saline containing: 82.5 mM NaCl, 2.5 mM KCl, 1 mM MgCl2, 5 mM HEPES, adjusted to pH 7.0 with NaOH (OR-2), and gently shaken in OR-2 containing 0.2% collagenase Type 1 (ICN Biomedicals, Aurora, Ohio) for 2-5 hours. When approximately 50% of the follicular layers were removed, Stage V and VI oocytes were selected and rinsed in media consisting of 75% OR-2 and 25% ND-96. The ND-96 contained: 100 mM NaCl, 2 mM KCl, 1 mM MgCl2, 1.8 mM CaCl2, 5 mM HEPES, 2.5 mM Na pyruvate, gentamicin (50 ug/ml), adjusted to pH 7.0 with NaOH. […] For in vitro transcription, PGEM HE (Liman et al., (1992) Neuron 9: 861-71) containing human HCN1 was linearized with NheI and transcribed with T7 RNA polymerase (Promega) in the presence of the cap analog m7G(5′)ppp(5′)G. The synthesized cRNA was precipitated with ammonium acetate and isopropanol, and resuspended in 50 μl nuclease-free water. cRNA was quantified using formaldehyde gels (1% agarose, 1×MOPS, 3% formaldehyde) against 1,2 and 5 μl RNA markers (Gibco BRL, 0.24-9.5 Kb).
# Oocytes were injected with 50 nl of human HCN1 RNA (1-10 ng). Control oocytes were injected with 50 nl of water. Oocytes were incubated for 2 days in ND-96 before analysis for expression of human HCN1. Incubations and collagenase digestion were carried out at room temperature. Injected oocytes were maintained in 48 well cell culture clusters (Costar; Cambridge, Mass.) at 18° C. Whole cell voltage-activated currents were measured 2 days after injection with a conventional two-electrode voltage clamp (GeneClamp500, Axon Instruments, Foster City, Calif.) using standard methods previously described and known in the art (Dascal et al., (1987) Pflugers Arch 409: 512-20). The microelectrodes, which had resistances of ˜1 MΩ, were filled with 3 M KCl. Cells were continuously perfused with ND96 at ˜10 ml/min at room temperature. Membrane voltage was clamped at −30 mV unless indicated.
# Oocytes were challenged with a series of hyperpolarizing voltage steps from a holding potential of −30 mV. Voltage steps (800 msec duration) to −40 through −180 mV in 20 mV intervals were applied to oocytes at a sampling rate of […]. Hyperpolarizing voltage steps activated an inward current having a threshold of about −60 mV. […] Cs^+ blocked HCN1 currents by 94, 92 and 90% when Ih was evoked by stepping to −80, −100 and −120 mV, respectively. […]
# [2] = system: spontaneous firing of Aβ and Aδ neurons; assay: In vitro single fiber recording of spontaneous discharges in excised dorsal root/DRG/spinal nerve preparation from SNL rats; type: cell-based, rat
# [3] = system: rat carrageenan model of hindpaw inflammation; assay: Thermal hyperalgesia (modified Hargreaves apparatus) in rat carrageenan model of hindpaw inflammation; type: in vivo; conditions: 10 mg/kg i.p.
# Protocol: However, blockade of HCN channels with ZD7288 at 10 mg/kg, i.p., had no effect on thermal hyperalgesia (measured using a modified Hargreaves apparatus) in two different models of inflammatory pain: the rat carrageenan model of hindpaw inflammation, and the rat complete Freund's adjuvant (CFA) model of hindpaw inflammation. As shown supra, HCN blockade also had little effect on acute thermally evoked pain in the hot plate test.
effect on endogenous oocyte inward currents [1],block of HCN1 currents ([1]; Ih evoked by stepping to −80 mV) [%],block of HCN1 currents ([1]; Ih evoked by stepping to −100 mV) [%],block of HCN1 currents ([1]; Ih evoked by stepping to −120 mV) [%],Structure (SMILES),suppression of spontaneous (ectopic) discharges of Aβ fibers ([2]; 100 μM bath application for 5 min),effect on spontaneous firing of Aδ fiber ([2]; 100 micromolar),"time to complete suppression of ectopic firing, Aβ fiber ([2]; 100 micromolar) [min]",conduction blockade of evoked action potentials ([2]; after application of ZD7288),effect on thermal hyperalgesia [3]
no effect,94,92,90,"[Cl-].[Cs+] [Cs^+, CsCl]",,,,,
,,,,CCN(c1ccccc1)c1cc(=NC)n(C)c(C)n1.Cl [ZD7288],complete suppression; also recorded: completely suppressed,attenuation of firing,3 to 4,no conduction blockade,no effect
